Results on five compounds are retold here after article PMC8419314, “Characterization of Compound-Specific, Concentration-Independent Biophysical Properties of Sodium Channel Inhibitor Mechanism of Action Using Automated Patch-Clamp Electrophysiology” (Frontiers in Pharmacology, 2021).

Assay [1] deals with T1, rNaV1.4 channel (Rattus norvegicus, UniProt P15390).
T1 construct: expressed in transfected cells; host or cells: HEK 293
The assay can be described thus: automated patch-clamp 17-pulse protocol (SDO, RFI, SSI), IonFlux Mercury, cell ensembles. The assay is classed as cell-based. Conditions: for Ki: inactivated-state affinity, calculated with equation of Bean et al. (1983). The method, then: Cell culture and electrophysiology were done as described in the accompanying paper ([Lukacs et al., 2021]). The recombinant rNaV1.4 channel-expressing cell line was generated as described before ([Lukacs et al., 2018]). Transfected HEK 293 cells were maintained in Dulbecco’s Modified Eagle Medium, high glucose supplemented with 10% v/v fetal bovine serum, 100 U/ml of penicillin/streptomycin, and 0.4 mg/ml Geneticin (Life Technologies, Carlsbad, CA). For experiments, cells were dissociated from culture dishes with Accutase (Corning), shaken in serum-free medium for 60 min at room temperature, then centrifuged, and resuspended into the extracellular solution to a concentration of 5 × 10^6 cells/mL. Voltage-clamp recordings were performed on an IonFlux Mercury instrument (Fluxion Biosciences). The composition of solutions (in mM) was: Intracellular solution: 50 CsCl, 10 NaCl, 60 CsF, 20 EGTA, and 10 HEPES; pH 7.2 (adjusted with 1 M CsOH). Extracellular solution: 140 NaCl, 4 KCl, 1 MgCl2, 2 CaCl2, 5 D-Glucose, and 10 HEPES; pH 7.4 (adjusted with 1 M NaOH). The osmolality of intra-and extracellular solutions was set to ∼320 and ∼330 mOsm, respectively. Data were sampled at 20 kHz, and filtered at 10 kHz. Experiments were carried out at room temperature.
Each zone consists of 8 separate sections, which are distinct functional units, containing 12 wells: one well for the cell suspension, one well for the waste, two cell “traps” (intracellular solution-filled wells under negative pressure to establish high resistance seals and then whole-cell configuration), and eight compound wells. […] Two kinds of microfluidic plates are manufactured: In single-cell plates, each cell trap contains a single hole and therefore catches a single cell. In “ensemble plates” there are 20 holes in each cell trap, and 20 cells are recorded simultaneously. […] From the 16 cell ensembles of each zone, we chose n = 6 ensembles for analysis.
We used a complex 17-pulse voltage protocol (Figure 1A), described in detail in the accompanying paper ([Lukacs et al., 2021]), which allowed the assessment of gating kinetics and gating equilibrium in the absence and the presence of inhibitor/modulator compounds. The protocol investigated the effect of different durations of depolarizations: 2.5, 7.5, 22.5, and 67.5 ms with 2.5 ms hyperpolarizing gaps between them; this section (pulses #1 to #5) is shown by different shades of green in Figure 1, and was named “state-dependent onset” (SDO). Next, pulses #6 to #12, as well as #1 investigated the effect of different durations of hyperpolarizations (1, 2, 4, 8, 16, 32, 64, and 498 ms, separated by 5 ms depolarizations) in the section shown by different shades of blue, and named “recovery from inactivation” (RFI). Finally, pulses #12 to #17 assessed the resting-inactivated equilibrium at different membrane potentials in the section named “steady-state inactivation” (SSI). The three sections were similar to protocols we used in previous studies ([Lukacs et al., 2018]; [Földi et al., 2021]).
In addition to automatic fitting, described in the accompanying paper ([Lukacs et al., 2021]), in this study we used a different approach to process SDO, RFI, and SSI data. This analysis focused on deriving compound-specific but concentration-independent descriptors of the mechanism of action, which can lead to a more thorough understanding of the sub-processes involved in drug action, and which can later serve as a basis for constructing kinetic models for the simulation of drug-specific effects. All data analysis was done in Microsoft Excel (RRID:SCR_016137) environment, using VBA routines to accelerate repetitive data management tasks. For each of the 17 pulses peak amplitudes were measured after removing capacitive artifacts and subtracting the leak.

Assay [2] concerns the target T1, rNaV1.4 channel. The assay is described as above. The assay is classed as cell-based. To be noted: pulse #5, SDO section; read-out: IC50 #5 (after 65.7 ms depol.).
Assay [3] addresses sodium channel. Also on record: method as in Vladimirov et al., 2000. Conditions: resting-state; ref Vladimirov et al., 2000; read-out: KR; cited from earlier work.
Assay [4] addresses sodium channel. Also on record: method as in Lenkey et al., 2010. To be noted: resting-state; ref Lenkey et al., 2010; read-out: KR; cited from earlier work.
Assay [5] concerns sodium channel. To be noted: from 10 Hz to 50 Hz; ref Desaphy et al. (2014); cited from earlier work.
[6] abbreviates: 1st pulse-evoked current, resting-state estimate, n = 6 ensembles, read-out: IC50 #1 (estimated KR).
Where [7] appears, read: pulse #7, RFI section, read-out: IC50 #7 (after 1 ms hyperpol.).
Where [8] appears, read: pulse #17, SSI section, read-out: IC50 #17 (−70 mV).
Setting [9] is: time range within which effective inhibitor potency changes upon depolarization.
[10] abbreviates: time range within which effective inhibitor potency changes upon hyperpolarization.

“And” between values parts separate entries of the source, which are not always exact repeats. Equal entries are not always repeated. Where two headings read alike, the source gives them in different places.

T1 sequence (P15390 whole entry): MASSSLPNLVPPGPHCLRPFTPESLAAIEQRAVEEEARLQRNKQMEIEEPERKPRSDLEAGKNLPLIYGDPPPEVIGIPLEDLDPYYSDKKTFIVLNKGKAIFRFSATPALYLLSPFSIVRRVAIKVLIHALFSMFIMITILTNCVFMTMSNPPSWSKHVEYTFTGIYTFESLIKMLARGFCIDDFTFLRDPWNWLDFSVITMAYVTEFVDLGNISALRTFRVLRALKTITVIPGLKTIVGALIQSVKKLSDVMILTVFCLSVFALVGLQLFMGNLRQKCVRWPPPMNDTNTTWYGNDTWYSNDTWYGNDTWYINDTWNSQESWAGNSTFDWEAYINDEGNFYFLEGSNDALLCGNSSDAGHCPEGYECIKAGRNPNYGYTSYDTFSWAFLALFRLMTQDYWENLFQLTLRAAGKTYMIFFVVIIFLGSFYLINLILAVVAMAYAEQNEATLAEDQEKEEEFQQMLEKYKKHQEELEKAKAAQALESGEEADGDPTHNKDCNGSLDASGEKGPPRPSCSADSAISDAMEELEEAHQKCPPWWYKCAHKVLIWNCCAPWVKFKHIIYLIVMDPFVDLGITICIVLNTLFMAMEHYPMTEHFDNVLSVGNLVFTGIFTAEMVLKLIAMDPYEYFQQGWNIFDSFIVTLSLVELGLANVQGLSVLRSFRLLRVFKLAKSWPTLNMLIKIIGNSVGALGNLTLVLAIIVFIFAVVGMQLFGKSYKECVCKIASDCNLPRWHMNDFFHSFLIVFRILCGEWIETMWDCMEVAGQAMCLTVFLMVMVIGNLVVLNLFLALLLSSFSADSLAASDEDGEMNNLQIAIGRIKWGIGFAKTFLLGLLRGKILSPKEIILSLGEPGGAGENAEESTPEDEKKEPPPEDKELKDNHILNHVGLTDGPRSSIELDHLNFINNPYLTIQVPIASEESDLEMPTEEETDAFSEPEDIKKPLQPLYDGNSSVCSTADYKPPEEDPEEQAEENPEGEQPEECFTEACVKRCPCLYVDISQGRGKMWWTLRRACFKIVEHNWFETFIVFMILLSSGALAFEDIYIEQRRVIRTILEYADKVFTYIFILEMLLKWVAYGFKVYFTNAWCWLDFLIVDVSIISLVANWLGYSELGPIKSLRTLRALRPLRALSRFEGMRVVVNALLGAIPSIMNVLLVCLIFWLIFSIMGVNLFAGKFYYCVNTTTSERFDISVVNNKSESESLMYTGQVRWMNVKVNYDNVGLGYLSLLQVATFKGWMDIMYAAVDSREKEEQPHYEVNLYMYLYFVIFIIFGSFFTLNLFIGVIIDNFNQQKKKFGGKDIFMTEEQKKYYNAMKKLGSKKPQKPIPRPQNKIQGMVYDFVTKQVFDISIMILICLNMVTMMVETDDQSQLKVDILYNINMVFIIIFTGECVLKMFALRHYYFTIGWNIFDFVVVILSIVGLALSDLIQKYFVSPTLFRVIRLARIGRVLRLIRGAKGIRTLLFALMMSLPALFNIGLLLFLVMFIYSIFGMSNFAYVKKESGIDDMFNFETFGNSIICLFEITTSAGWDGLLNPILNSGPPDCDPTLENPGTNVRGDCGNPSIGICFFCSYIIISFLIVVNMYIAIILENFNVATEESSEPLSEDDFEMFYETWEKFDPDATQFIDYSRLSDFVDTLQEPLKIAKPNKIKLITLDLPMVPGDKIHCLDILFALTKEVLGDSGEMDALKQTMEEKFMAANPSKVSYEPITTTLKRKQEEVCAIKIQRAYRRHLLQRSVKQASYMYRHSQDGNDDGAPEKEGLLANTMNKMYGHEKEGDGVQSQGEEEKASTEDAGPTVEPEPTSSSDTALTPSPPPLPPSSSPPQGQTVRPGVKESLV

For the compound `CCCCN1CCCCC1C(=O)Nc1c(C)cccc1C` (stereo not shown) [Bupivacaine, bupivacaine], the IC50 was 94.6 ± 10.7 µM in assay [1] (setting [6]), 33.5 ± 2.32 µM in assay [1] (setting [7]), 16.3 ± 1.7 µM in assay [1] (setting [8]) and 27.3 ± 1.45 µM in assay [2]. Also, in assay [1], the Ki was 12.7 ± 1.22 µM. Moreover, the macro-offset time constant in assay [1] (offset upon drug washout) is 3.56 ± 0.43 s; in assay [1] (offset upon drug washout, listed as bupivacaine), 3.56 s. The KR/KI ratio in assay [1] (state-dependence) was found to be 7.48 ± 0.68; in assay [1] (state-dependence, listed as bupivacaine) it was 7.48. Besides, the micro-onset range in assay [1] (setting [9]) is 100–1,000 ms. Moreover, the micro-offset range in assay [1] (setting [10]) is reported as 100–1,000 ms. The results for the Kd in assay [3] and in assay [4] were approximately 317 µM and approximately 619 µM, respectively.
Turning to `NC1=N[C@H](O)[C@H]2[C@H]3O[C@]4(O)O[C@@H]([C@@H](O)[C@@]2(N1)[C@@H]4O)[C@]3(O)CO` [Tetrodotoxin, tetrodotoxin], in assay [1], the KR/KI ratio worked out at 1.7 ± 0.11; the “extent of change of EIP during SDO, RFI and SSI sections” value is listed as “less than 2 fold”; the macro-offset time constant is given as 22.9 ± 1.50 s; the micro-offset range was 1 to 10 ms. Moreover, the micro-onset range in assay [1] was in the range of 1 to 100 ms. Besides, the IC50 in assay [1] (read-out: IC50 #1 (estimated KR)) is 0.028 µM. Besides, the half-maximal inhibitory concentration (IC50) in assay [1] (read-out: IC50 #5 (after 65.7 ms depol.)) is 0.015 µM. In addition, in assay [1] (read-out: IC50 #7 (after 1 ms hyperpol.)), the IC50 was 0.018 µM. Moreover, in assay [1] (read-out: IC50 #17 (−70 mV)), the IC50 was determined as 0.018 µM.
With `CCOC(=O)c1ccc(N)cc1` [Benzocaine, benzocaine], the “fraction of channels inhibited” value in assay [1] (100 µM, indicated by KI calculated from SSI data) is given as “more than half”. For the same compound, the IC50 in assay [1] (setting [6]) was 2240 µM; in assay [1] (setting [7]) it was 290 ± 22.3 µM; in assay [1] (setting [8]), 170 ± 10.3 µM; in assay [2], 1300 µM. For the same compound, the channels recovered in assay [1] (at 2 ms gap duration) is 70–90%. Besides, the Ki in assay [1] was 79.4 ± 3.9 µM. The “time for micro-offset to be complete” value in assay [1] (offset of effect upon hyperpolarization) is given as not above 4 ms. The compound further showed a macro-offset time constant in assay [1] (offset upon drug washout) of 1.42 ± 0.59 s. In addition, the “time for micro-onset to be complete” value in assay [1] (onset of effect upon depolarization) is reported as not above 2.5 ms. Also, the KR/KI ratio in assay [1] (state-dependence) was 28.3 ± 3.8; in assay [1] (state-dependence, listed as benzocaine), 28.3. Also, the micro-onset range in assay [1] (setting [9]) was in the range of 0.1 to 2 ms. In assay [1] (setting [10]), the micro-offset range lay within 0.1 to 4 ms.
On to `CCN(CC)CC(=O)Nc1c(C)cccc1C` [Lidocaine, lidocaine], for which, in assay [1], the KR/KI ratio was 69.7 and 69.7 ± 20.9; the macro-offset time constant stood at 1.72 ± 0.05 s; the micro-offset range fell in the range of 10 to 500 ms; the micro-onset range is 1 to 100 ms. For the same compound, in assay [1], the “time for micro-onset to be complete” value is “more than 100 ms” and the Ki was 18.4 ± 1.52 µM. In assay [1] (setting [6]), the IC50 is 1280 µM. The IC50 in assay [1] (setting [7]) was found to be 71.7 ± 5.83 µM. Moreover, the half-maximal inhibitory concentration (IC50) in assay [1] (setting [8]) came to 22.8 ± 2.04 µM. Further, the concentration for half-maximal inhibition (IC50) in assay [2] amounted to 31.9 ± 2.28 µM.
Turning to `Nc1nc2ccc(OC(F)(F)F)cc2s1` [Riluzole, riluzole], the “inhibition, pulses #1, #6 and #12” value in assay [1] (100 µM, single cell ensemble) was “no inhibition”. Further, the “inhibition, pulses #7 and #17” value in assay [1] (100 µM, single cell ensemble) is listed as “almost full inhibition”. The IC50 in assay [1] (setting [6]) is 1360 µM; in assay [1] (setting [7]), 42.1 ± 3.62 µM; in assay [1] (setting [8]), 6.86 ± 4.36 µM; in assay [2] it was 27.4 ± 6.44 µM. In assay [1], the Ki was 5.63 ± 3.35 µM. Besides, the macro-offset time constant in assay [1] (offset upon drug washout) is 13.6 ± 0.71 s. Moreover, the “increase of apparent affinity” value in assay [5] is listed as 48 fold.
